# Test results published in US12268710B2, “Method of treating severe forms of pulmonary hypertension” (ReversPAH LLC, priority 2019, dated 2025).
# Entries after “also recorded” stand apart in the source; their conditions may differ.
# How the values were obtained:
# rodent models of PH = conditions: in vivo; cited from earlier work
# [1] = system: Sugen/Hypoxia rats (SuHx) with established PAH; experiment: Sugen 5416/chronic hypoxia rat model of severe angio-obliterative PAH; assay type: in vivo
# Method: Specifically, FIGS. 4A and B, which are from the paper which included Norbert F. Voelkel as a senior author, show the compared results of control rats, Sugen/Hypoxia rats (SuHx) with established PAH, and SuHx rats treated with TTM in an amount of 10 mg/kg every other day for 10 days. […] FIG. 5 provides the results, which compares the degree of obliteration of c-kit^+ expressing stem cells in the lung vessels of Sugen/Hypoxia rats (SuHx) treated with a vehicle (SuHx-vehicle) and Sugen/Hypoxia rats treated with TTM (SuHx-TTM) in an amount of 10 mg/kg every other day for 10 days. Third, copper plays a role in the alteration of genes of the cytochrome P450. The lung and, in particular, the lung vascular endothelial cells (EC) are involved in drug metabolism and the handling of toxic substances. It is known that cigarette smoke toxins highly up-regulate the expression of specific drug metabolizing genes, the genes of the cytochrome P450 super-family. There are 56 known cytochrome P450 genes coding for 56 isozymes. These enzymes metabolize 75% of all drugs in use, including all of the vasodilator drugs conventionally used for PAH treatment. These enzymes also are involved in cell growth and differentiation, in cholesterol and estrogen metabolism and for many years a role of these enzymes in the pathogenesis of cancers has been examined (in particular prostate, breast and lung cancer) (Kwapiszewska G et al, Circulation Research, submitted 2019). Norbert F. Voelkel discovered that the drug Sugen 5416, a component of the Sugen-induced rat models of angio-obliterative PAH, induces some of these cytochrome P450 isozyme genes more than 200-fold (Al-Husseini et al, Pulm Circ. 2015 March; 5(1); 101-116). […] Specifically, the vessel lumina are occluded in the not-treated animals (SuHx), whereas they have been reopened after the treated animals (SuHx+TTM) received 10 mg/kg TTM every other day for 10 days. […] The treatment lasted 3 weeks (21 days) with DEC being administered in an amount of 50 mg/kg daily treatment. Norbert F. Voelkel concludes that the anti-inflammatory drug DEC affects developing PAH and is partially effective once angio-obliterative PAH has been established.
# [2] = system: Sugen/Hypoxia rats (SuHx) with established PAH; conditions: Farkas D. et al 2014; cited from earlier work
# [3] = system: cytochrome P450 isozyme genes; experiment: Induction of cytochrome P450 isozyme genes by Sugen 5416; conditions: Al-Husseini et al, Pulm Circ. 2015
# From the text: Third, copper plays a role in the alteration of genes of the cytochrome P450. The lung and, in particular, the lung vascular endothelial cells (EC) are involved in drug metabolism and the handling of toxic substances. It is known that cigarette smoke toxins highly up-regulate the expression of specific drug metabolizing genes, the genes of the cytochrome P450 super-family. There are 56 known cytochrome P450 genes coding for 56 isozymes. These enzymes metabolize 75% of all drugs in use, including all of the vasodilator drugs conventionally used for PAH treatment. These enzymes also are involved in cell growth and differentiation, in cholesterol and estrogen metabolism and for many years a role of these enzymes in the pathogenesis of cancers has been examined (in particular prostate, breast and lung cancer) (Kwapiszewska G et al, Circulation Research, submitted 2019). Norbert F. Voelkel discovered that the drug Sugen 5416, a component of the Sugen-induced rat models of angio-obliterative PAH, induces some of these cytochrome P450 isozyme genes more than 200-fold (Al-Husseini et al, Pulm Circ. 2015 March; 5(1); 101-116). […] Specifically, the vessel lumina are occluded in the not-treated animals (SuHx), whereas they have been reopened after the treated animals (SuHx+TTM) received 10 mg/kg TTM every other day for 10 days.
# [4] = system: patient with pulmonary veno-occlusive disease (PVOD); experiment: Low-dose MTX treatment of one patient with pulmonary veno-occlusive disease; assay type: in vivo, human
# From the text: Another possible co-drug is methotrexate. […] MTX is of particular interest because it is an inhibitor of the enzyme dihydrofolate reductase and thereby inhibits DNA, RNA and protein synthesis, which is the desired action in cancer treatment at high MTX doses. Norbert Voelkel has prescribed MTX for one patient with pulmonary veno-occlusive disease, which is a rare form of severe PH. […] The anti-inflammatory and immune system affecting action of MTX is accomplished with low doses. […] PVOD is a fatal and extremely rare PH disorder. […] Vasodilator-induced lung edema precludes the use of vasodilator drugs in these patients.
# angiogenesis = conditions: high dosage; through the induction of apoptosis; cited from earlier work
# [5] = system: silica-induced lung inflammation and fibrosis; conditions: by inhibiting T-helper 17 cell (TH 17); cited from earlier work
# colon cancer = conditions: by apoptosis and cellular senescence; cited from earlier work
# [6] = system: monocrotaline-induced pulmonary hypertension; conditions: through the bone morphogenetic protein signaling pathway; cited from earlier work
# [7] = DEC study 2015 (Al Husseini et al)
# [8] = after lung vascular disease established, 50 mg/kg daily for 3 weeks (21 days)
# [9] = established severe PAH, treated for two weeks
structure (smiles),measurement,setting,value
O=c1c(O)c(-c2ccc(O)c(O)c2)oc2cc(O)cc(O)c12 [Quercetin],vascular remodeling in rodent models of PH,rodent models of PH,inhibit
"CCN(CC)C(=O)N1CCN(C)CC1 [DEC, diethylcarbamazine]",muscularization of pulmonary arterioles,[1]; [7],blunted
same,number of fully obliterated lung vessels,[1]; [7],reduced
same,occluded vessels (FIGS. 8A-C),[1]; SuHx+DEC vs SuHx,reopens occluded vessels
same,degree of PAH,[1]; [8],reduced
same,degree of perivascular inflammation,[1]; [8],reduced
same,number of obliterated arterioles,[1]; [8],reduced
"[NH4+].[NH4+].[SH-].[SH-].[S]=[Mo]=[S] [TTM, ammonium tetrathiomolybdate]","expression of integrin protein alpha v beta 3 in lung (FIGS. 4A, B)",[1]; 10 mg/kg every other day for 10 days,reduced; also recorded: normalized
same,"lung vessel lumina / arterioles (immunohistochemistry, FIG. 2)","[1]; 10 mg/kg every other day for 10 days, intraperitoneal, SuHx+TTM vs SuHx",reopened; also recorded: reopens lung arterioles
same,number of c-kit+ precursor cells in the lung vascular lesions (FIG. 5),"[1]; 10 mg/kg every other day for 10 days, vs SuHx-vehicle",reduced the number of c-kit+ precursor cells
same,expression of anoikis marker protein BIM in lung tissue (FIG. 3),"[1]; SuHx-TTM vs SuHx, referenced to beta-actin",upregulated
same,"anoikis, evidenced by cells expressing the marker BIM",[1]; TTM-treated SuHx rats,induced anoikis
same,occluded lung vessels,[1]; [9],reopening of occluded lung vessels
same,pulmonary arterial pressure,[1]; [9],cut the pulmonary arterial pressure in half
same,reversal of established severe PAH,[1]; [9],reversed the PAH
S=C(S)N1CCCC1 [pyrrolidine dithiocarbamate],reversal of established angio-obliterative PAH,[2],reverse established angio-obliterative PAH
Cc1cc(C)c(/C=C2\C(=O)Nc3ccccc32)[nH]1 [Sugen 5416],induction of some cytochrome P450 isozyme genes,[3],more than 200 fold
"CN(Cc1cnc2nc(N)nc(N)c2n1)c1ccc(C(=O)N[C@@H](CCC(=O)O)C(=O)O)cc1 [MTX, Methotrexate]",reversal of the PH,[4],did not reverse the PH
same,survival,[4],prolonged survival
same,progression of the disease (PVOD),[4]; low dose MTX,arrested the proliferative progression; also recorded: halted
O=C(O)[C@H]1O[C@@H](Oc2cc3oc(-c4ccccc4)cc(=O)c3c(O)c2O)[C@H](O)[C@@H](O)[C@@H]1O [baicalin],angiogenesis,angiogenesis,inhibit angiogenesis
same,silica-induced lung inflammation and fibrosis,[5],alleviate
same,colon cancer,colon cancer,inhibit colon cancer
same,monocrotaline-induced pulmonary hypertension,[6],attenuate
